Reference: paper PMC9103351, “Effects of the Bark Resin Extract of Garcinia nigrolineata on Chronic Stress-Induced Memory Deficit in Mice Model and the In Vitro Monoamine Oxidases and β-Amyloid Aggregation Inhibitory Activities of Its Prenylated Xanthone Constituents” (Molecules, 2022)
Like-named read-outs stand apart in the source and are kept apart here.

Key:
recombinant human MAO-B = molecular target: T1, recombinant human MAO-B (Homo sapiens, UniProt P27338); test: Inhibitory activity on recombinant human MAO-B (kynuramine, fluorescence); format: biochemical; settings: for isoenzyme selectivity by selectivity index (MAO-B): from Si values; for IC50: recombinant human MAO-B, kynuramine substrate
T1 construct: purchased Sigma-Aldrich
T1 sequence (P27338 1-520): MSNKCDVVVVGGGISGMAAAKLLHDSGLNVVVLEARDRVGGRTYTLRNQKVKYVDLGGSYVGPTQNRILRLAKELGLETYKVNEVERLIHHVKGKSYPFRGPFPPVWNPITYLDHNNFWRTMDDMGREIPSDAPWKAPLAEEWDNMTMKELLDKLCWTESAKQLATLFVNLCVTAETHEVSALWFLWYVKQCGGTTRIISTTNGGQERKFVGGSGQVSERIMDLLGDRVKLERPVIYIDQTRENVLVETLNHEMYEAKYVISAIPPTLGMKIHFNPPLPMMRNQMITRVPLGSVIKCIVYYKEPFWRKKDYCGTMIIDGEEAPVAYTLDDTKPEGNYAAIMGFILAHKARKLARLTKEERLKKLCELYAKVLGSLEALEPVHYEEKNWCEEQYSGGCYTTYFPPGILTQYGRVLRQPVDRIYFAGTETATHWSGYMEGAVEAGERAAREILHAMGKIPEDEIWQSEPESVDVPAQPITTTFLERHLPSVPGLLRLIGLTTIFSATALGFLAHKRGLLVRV
Procedure: (§1) The inhibitory activity assays of the isolated compound with recombinant human MAO-A and MAO-B (Sigma-Aldrich, St. Louis, MO, USA) were carried out with some modification as described recently by. In brief, 1–6 and 8–10 were first dissolved in DMSO to obtain a stock solution with a concentration of 25 mM. The activity was determined by serial dilution of each concentration of the compounds. For the MAO-A inhibitor assay, 4.5 µL of kynuramine (Sigma-Aldrich, St. Louis, MO, USA) were mixed with 234.75 µL of potassium phosphate buffer (100 mM, pH 7.4, made isotonic with KCl, 20.2 mM). Then, 3 µL of kynuramine were mixed with 236.25 µL of potassium phosphate buffer (pH 7.4) for the MAO-B inhibitor assay. The reaction was stopped by adding 400 µL of 2N NaOH and 1000 µL of water. The fluorescence of 4-hydroxyquinoline (Sigma-Aldrich, St. Louis, MO, USA), a by-product of this reaction, was measured with the excitation wavelength at 310 nm and the emission wavelength at 400 nm. The initial rates of MAO-catalyzed kynuramine oxidation were plotted versus the logarithm of the inhibitor concentrations and reported as IC50 values by using the Prism software package (GraphPad Software, version 5, San Diego, CA, USA) to evaluate quantitative. IC50 values were converted to Ki values by using the equation Ki = IC50/(1 + [S]/Km).

Aβ1-42 = molecular target: T2, Aβ1-42 (Homo sapiens, UniProt P05067); test: Thioflavin-T assay of Aβ1-42 self-aggregation inhibition; format: biochemical; settings: for % Inhibition of Aβ Aggregation: Aβ1-42 10 µM, 24 h at 37 °C, Th-T fluorescence; for percent of self-aggregation of Aβ-(1-42): without any compound taken as 100%
T2 construct: Aβ1-42 was dissolved in a 50 mM phosphate buffer (pH 7.4)
Procedure: A thioflavin-T (Th-T) assay was used to evaluate the ability of 1–6 and 8–10, isolated from GN bark resin extract, to inhibit Aβ42 aggregation. The presence of Aβ plaques in the brain appears to be related to cognitive decline and neurodegeneration.
The Thioflavin-T assay used to investigate the Aβ1-42 self-aggregation activity was performed as previously described. Aβ1-42 was dissolved in a 50 mM phosphate buffer (pH 7.4) to obtain a […] stock solution. […] In black and opaque 96-well plates, 2 µL of each compound were added at a concentration of 100 µM. Then, in each well, Aβ1-42 solution was added to give a final concentration of 10 µM and mixed thoroughly. Covered plates were left in the dark for 24 h at 37 °C without agitation. After incubation, each well was loaded with 190 µL of […] ThT in 50 mM glycine/NaOH buffer (pH 8.0), and fluorescence intensities were measured at 446 nm and 490 nm for excitation and emission, respectively. The percent inhibition of each compound was calculated and reported.

recombinant human MAO-A = molecular target: T3, recombinant human MAO-A (Homo sapiens, UniProt P21397); test: Inhibitory activity on recombinant human MAO-A (kynuramine, fluorescence); format: biochemical; settings: for Si MAO-A: selective index from Ki values (Ki = IC50/(1 + [S]/Km)), Si = Ki (MAO-B)/Ki (MAO-A)
T3 construct: purchased Sigma-Aldrich
T3 sequence (P21397 1-527): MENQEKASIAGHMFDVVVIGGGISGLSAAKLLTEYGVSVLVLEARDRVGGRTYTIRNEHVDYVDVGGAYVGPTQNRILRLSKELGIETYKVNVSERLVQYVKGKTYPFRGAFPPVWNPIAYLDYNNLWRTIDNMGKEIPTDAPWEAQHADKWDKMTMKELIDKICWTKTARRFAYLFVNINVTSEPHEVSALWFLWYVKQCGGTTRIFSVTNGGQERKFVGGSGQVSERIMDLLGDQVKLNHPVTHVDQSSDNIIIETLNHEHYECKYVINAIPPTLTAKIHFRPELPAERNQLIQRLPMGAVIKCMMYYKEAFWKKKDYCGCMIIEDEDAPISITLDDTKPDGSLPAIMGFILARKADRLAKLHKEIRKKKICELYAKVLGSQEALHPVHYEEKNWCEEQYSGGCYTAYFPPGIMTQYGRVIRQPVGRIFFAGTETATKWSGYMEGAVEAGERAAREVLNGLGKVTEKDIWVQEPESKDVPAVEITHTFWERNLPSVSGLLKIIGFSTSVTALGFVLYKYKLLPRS
Procedure: as §1

Aβ (1-42) = test system: Aβ (1-42); parameters: method as in PMID 27038926; settings: Aβ (1-42) incubated with compound 6 days at 37 °C; cited from earlier work
[1] = selective index from Ki values (Ki = IC50/(1 + [S]/Km)), Si = Ki (MAO-B)/Ki (MAO-A)
[2] = recombinant human MAO-A, kynuramine substrate, read-out: IC50 MAO-A

T2 sequence (P05067 672-713 limits assumed): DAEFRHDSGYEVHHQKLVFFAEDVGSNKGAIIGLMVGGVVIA

SMILES	isoenzyme selectivity by selectivity index (MAO-B) (recombinant human MAO-B)	IC50 (recombinant human MAO-B) [µM]	Si MAO-B (recombinant human MAO-B; [1])	% Inhibition of Aβ Aggregation (Aβ1-42; compound 100 µM)	percent of self-aggregation of Aβ-(1-42) (Aβ1-42; compound 100 µM) [%]	IC50 (recombinant human MAO-A; [2]) [µM]	Si MAO-A (recombinant human MAO-A)	amyloid aggregation inhibition (Aβ (1-42))	Si MAO-B (recombinant human MAO-B)	IC50 (recombinant human MAO-A) [µM]	% Inhibition of Aβ Aggregation (Aβ1-42; positive control at 5 µM) [%]	percent of self-aggregation of Aβ-(1-42) (Aβ1-42; positive control at 5 µM) [%]
COc1cc2oc3c(OC)c(O)ccc3c(=O)c2c(O)c1CC=C(C)C [Compound 1, cowagarcinone C]	selectivity index on MAO-B	17.99 ± 0.11	0.294	46.79 ± 5.46%	53.21 ± 5.46	100.2 ± 0.35	3.407					
COc1cc2c(=O)c3c(O)c(C/C=C(\C)CCC=C(C)C)c(O)cc3oc2cc1O [Compound 2, cowaxanthone]		238.5 ± 2.03	3.254	58.56 ± 3.28%	41.44 ± 3.28	119.8 ± 0.75	0.307					
COc1c(O)cc2oc3cc(O)c(CC=C(C)C)c(O)c3c(=O)c2c1CC=C(C)C [Compound 3, α-mangostin]	selectivity index on MAO-B	40.1 ± 0.89	0.821	Not detected		79.81 ± 0.5	1.218	inhibiting amyloid aggregation				
COc1cc2oc3cc(O)c(CC=C(C)C)c(O)c3c(=O)c2c(CC=C(C)C)c1OC [Compound 4, cowaxanthone B]	selectivity index on MAO-B	15.6 ± 0.26	0.6333	Not detected		40.21 ± 0.35	1.579					
COc1c(O)cc2oc3cc(O)c(CC=C(C)C)c(O)c3c(=O)c2c1C/C=C(\C)CCC=C(C)C [Compound 5, cowanin]		16.3 ± 1.44		Not detected			0.266		3.762	7.1 ± 0.03		
COc1c(O)cc2oc3cc4c(c(O)c3c(=O)c2c1C/C=C(\C)CCC=C(C)C)C=CC(C)(C)O4 [Compound 6, fuscaxanthone A]	selectivity index on MAO-B	0.07 ± 0.01	0.00179	Not detected		69.92 ± 0.06	558.273					
COc1c(O)cc2oc3cc4occc4c(O)c3c(=O)c2c1C/C=C(\C)CCC=C(C)C [Compound 8, xanthochymusxanthone A]		> 400	0.6522	Not detected.		100.5 ± 0.44	<0.153					
COc1c(O)c(CC=C(C)C)c2oc3cc(O)c(CC=C(C)C)c(O)c3c(=O)c2c1CC=C(C)C [Compound 9, 7-O-methylgarcinone E]	selectivity index on MAO-B	0.4 ± 0.01	0.0256	Not detected		25.4 ± 0.63	38.705					
COc1c(O)c(CC=C(C)C)c2oc3cc(O)c(CC=C(C)C)c(O)c3c(=O)c2c1C/C=C(\C)CCC=C(C)C [Compound 10, cowagarcinone A]		> 400	183.168	Not detected		3.58 ± 0.02	<0.005					
COc1cc(/C=C/C(=O)CC(=O)/C=C/c2ccc(O)c(OC)c2)ccc1O [Curcumin, reference compound]											51.73 ± 2.89	48.27 ± 2.89
